Assay results taken from patent US12539292B2, “BRM targeting compounds and associated methods of use” (Arvinas Operations, Inc., priority 2018, dated 2026).
Where two headings read alike, the source gives them in different places.

Biological target: T1, BRM (Homo sapiens, UniProt P51531)
T1 construct: In-Cell Western Screen of BRM Degradation in SW1573 Cells; endogenous in cells; host or cells: SW1573
Experiment: In-cell Western screen of BRM degradation in SW1573 cells (Dmax and DC50)
Type: cell-based
How it was run: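 SW1573 cells were treated with compound overnight (18-20 h; final DMSO 0.1%), then fixed in 4% PFA, permeabilized with Triton X-100 and blocked. BRM was detected by in-cell Western using 800 nm anti-rabbit and 680 nm anti-mouse secondaries, and Dmax and DC50 were derived from the LI-COR Odyssey signal.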

[1] = SW1573, % degraded, when tested at the top concentration of between 0.3 and 10 μM, read-out: BRM Dmax (%)
[2] = target protein degradation, read-out: BRM DC50
[3] = BRM degradation, SW1573 cells, read-out: DC50
[4] = BRM degradation, SW1573 cells, when tested at the top concentration of between 0.3 and 10 μM, read-out: Dmax (%) (% degraded)
[5] = BRM degradation, SW1573 cells, read-out: Dmax (% degraded)

T1 sequence (P51531 whole entry): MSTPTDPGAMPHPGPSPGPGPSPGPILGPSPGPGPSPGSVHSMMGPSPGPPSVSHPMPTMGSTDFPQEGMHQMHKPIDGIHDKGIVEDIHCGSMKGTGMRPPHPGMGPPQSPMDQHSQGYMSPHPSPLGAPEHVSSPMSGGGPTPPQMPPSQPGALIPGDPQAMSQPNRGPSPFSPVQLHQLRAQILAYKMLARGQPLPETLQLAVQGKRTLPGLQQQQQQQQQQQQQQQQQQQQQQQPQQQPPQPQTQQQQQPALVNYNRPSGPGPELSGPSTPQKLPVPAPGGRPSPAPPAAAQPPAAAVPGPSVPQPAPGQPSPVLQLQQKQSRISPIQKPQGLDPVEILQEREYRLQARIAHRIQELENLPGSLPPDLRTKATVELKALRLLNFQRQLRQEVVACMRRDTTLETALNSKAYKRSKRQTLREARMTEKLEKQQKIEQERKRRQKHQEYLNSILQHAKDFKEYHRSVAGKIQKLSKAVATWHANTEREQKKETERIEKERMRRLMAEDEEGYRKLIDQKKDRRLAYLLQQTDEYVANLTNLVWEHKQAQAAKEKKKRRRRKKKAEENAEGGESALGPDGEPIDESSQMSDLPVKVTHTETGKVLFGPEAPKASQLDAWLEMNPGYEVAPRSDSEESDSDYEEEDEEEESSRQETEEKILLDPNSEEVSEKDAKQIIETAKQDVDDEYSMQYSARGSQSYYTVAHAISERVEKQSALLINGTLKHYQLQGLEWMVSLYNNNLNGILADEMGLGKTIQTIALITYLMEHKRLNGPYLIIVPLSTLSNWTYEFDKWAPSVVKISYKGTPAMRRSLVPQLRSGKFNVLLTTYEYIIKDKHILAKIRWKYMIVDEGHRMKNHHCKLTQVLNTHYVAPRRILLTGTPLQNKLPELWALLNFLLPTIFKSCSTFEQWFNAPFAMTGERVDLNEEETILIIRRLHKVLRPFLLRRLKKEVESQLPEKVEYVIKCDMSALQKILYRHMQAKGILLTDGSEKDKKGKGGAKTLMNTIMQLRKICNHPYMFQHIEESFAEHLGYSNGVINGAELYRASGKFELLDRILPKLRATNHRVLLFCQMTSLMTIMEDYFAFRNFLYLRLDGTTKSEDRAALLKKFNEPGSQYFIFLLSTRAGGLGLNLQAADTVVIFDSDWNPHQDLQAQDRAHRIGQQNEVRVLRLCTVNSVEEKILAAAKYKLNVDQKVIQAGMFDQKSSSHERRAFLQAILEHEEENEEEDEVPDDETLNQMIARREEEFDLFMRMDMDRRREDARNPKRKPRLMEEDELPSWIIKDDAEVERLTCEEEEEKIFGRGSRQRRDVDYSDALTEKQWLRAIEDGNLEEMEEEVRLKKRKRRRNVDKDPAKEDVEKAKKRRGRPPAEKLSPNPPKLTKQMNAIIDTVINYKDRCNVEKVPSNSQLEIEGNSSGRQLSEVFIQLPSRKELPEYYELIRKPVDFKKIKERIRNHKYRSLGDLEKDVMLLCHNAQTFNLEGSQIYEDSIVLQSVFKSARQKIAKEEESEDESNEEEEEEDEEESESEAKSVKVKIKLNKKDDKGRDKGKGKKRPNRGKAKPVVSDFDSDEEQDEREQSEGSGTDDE

Structure (SMILES) | DC50 [3] [nM] | Dmax [4] [%] | also measured
Cc1ncsc1-c1ccc([C@H](C)NC(=O)[C@@H]2C[C@@H](O)CN2C(=O)[C@@H](c2cc(OCCN3C[C@H]4C[C@@H](O[C@H]5C[C@H](Oc6cc(N7C8CCC7CN(c7cc(-c9ccccc9O)nnc7N)C8)ccn6)C5)C[C@H]4C3)no2)C(C)C)cc1 [compound 360, (2S,4R)-1-((2R)-2-(3-(2-((3aR,5R,6aS)-5-((1r,3R)-3-((4-(3-(3-amino-6-(2-hydroxyphenyl)pyridazin-4-yl)-3,8-diazabicyclo[3.2.1]octan-8-yl)pyridin-2-yl)oxy)cyclobutoxy)hexahydrocyclopenta[c]pyrrol-2(1H)-yl)ethoxy)isoxazol-5-yl)-3-methylbutanoyl)-4-hydroxy-N-((S)-1-(4-(4-methylthiazol-5-yl)phenyl)ethyl)pyrrolidine-2-carboxamide] | – | – | Dmax [1]: > 75%; DC50 [2]: < 2.5 nM
Cc1ncsc1-c1ccc([C@H](C)NC(=O)[C@@H]2C[C@@H](O)CN2C(=O)[C@@H](c2cc(OCC[C@H]3CC[C@H](O[C@H]4C[C@H](Oc5cc(N6C7CCC6CN(c6cc(-c8ccccc8O)nnc6N)C7)ccn5)C4)CC3)no2)C(C)C)cc1 [compound 488, (2S,4R)-1-((2R)-2-(3-(2-((1R,4R)-4-((1r,3R)-3-((4-(3-(3-amino-6-(2-hydroxyphenyl)pyridazin-4-yl)-3,8-diazabicyclo[3.2.1]octan-8-yl)pyridin-2-yl)oxy)cyclobutoxy)cyclohexyl)ethoxy)isoxazol-5-yl)-3-methylbutanoyl)-4-hydroxy-N-((S)-1-(4-(4-methylthiazol-5-yl)phenyl)ethyl)pyrrolidine-2-carboxamide] | – | – | Dmax [1]: > 75%; DC50 [2]: < 2.5 nM
Cc1ncsc1-c1ccc([C@H](C)NC(=O)[C@@H]2C[C@@H](O)CN2C(=O)[C@@H](c2cc(OCCN3CCN(CCOc4cc(N5C6CCC5CN(c5cc(-c7ccccc7O)nnc5N)C6)ccn4)CC3)no2)C(C)C)cc1 [compound 47] | < 2.5 | > 75 | –
Cc1cc([C@H](C(=O)N2C[C@H](O)C[C@H]2C(=O)N[C@@H](C)c2ccc(-c3scnc3C)cc2)[C@H](C)COCCOc2cc(N3C4CCC3CN(c3cc(-c5ccccc5O)nnc3N)C4)ccn2)on1 [compound 514, (2S,4R)-1-((2R,3S)-4-(2-((4-(3-(3-amino-6-(2-hydroxyphenyl)pyridazin-4-yl)-3,8-diazabicyclo[3.2.1]octan-8-yl)pyridin-2-yl)oxy)ethoxy)-3-methyl-2-(3-methylisoxazol-5-yl)butanoyl)-4-hydroxy-N-((S)-1-(4-(4-methylthiazol-5-yl)phenyl)ethyl)pyrrolidine-2-carboxamide] | – | – | DC50 (BRM degradation, read-out: BRM DC50): > 30 nM
Cc1ncsc1-c1ccc([C@H](C)NC(=O)[C@@H]2C[C@@H](O)CN2C(=O)[C@H](c2cc(N3CCC(CN4CCC(O[C@H]5C[C@H](Oc6cc(N7C8CCC7CN(c7cc(-c9ccccc9O)nnc7N)C8)ccn6)C5)CC4)CC3)no2)C(C)C)c(O)c1 [compound 696, (2S,4R)-1-((2S)-2-(3-(4-((4-((1r,3r)-3-((4-(3-(3-amino-6-(2-hydroxyphenyl)pyridazin-4-yl)-3,8-diazabicyclo[3.2.1]octan-8-yl)pyridin-2-yl)oxy)cyclobutoxy)piperidin-1-yl)methyl)piperidin-1-yl)isoxazol-5-y1)-3-methylbutanoyl)-4-hydroxy-N-((S)-1-(2-hydroxy-4-(4-methylthiazol-5-yl)phenyl)ethyl)pyrrolidine-2-carboxamide] | > 30 | – | –
Cc1ncsc1-c1ccc(CNC(=O)[C@@H]2C[C@@H](O)CN2C(=O)[C@H](c2cc(CCCOCCOCCOCCOCCn3cc(-c4cc(-c5ccccc5O)nnc4N)cn3)no2)C(C)C)cc1 [compound 25] | > 30 | > 75 | –
Cc1ncsc1-c1ccc([C@H](C)NC(=O)[C@@H]2C[C@@H](O)CN2C(=O)[C@@H](c2cc(OCCN3C[C@H]4C[C@@H]3CN4CCOc3cc(N4C5CCC4CN(c4cc(-c6ccccc6O)nnc4N)C5)ccn3)no2)C(C)C)cc1 [compound 136, (2S,4R)-1-((2R)-2-(3-(2-((1R,4R)-5-(2-((4-(3-(3-amino-6-(2-hydroxyphenyl)pyridazin-4-yl)-3,8-diazabicyclo[3.2.1]octan-8-yl)pyridin-2-yl)oxy)ethyl)-2,5-diazabicyclo[2.2.1]heptan-2-yl)ethoxy)isoxazol-5-yl)-3-methylbutanoyl)-4-hydroxy-N-((S)-1-(4-(4-methylthiazol-5-yl)phenyl)ethyl)pyrrolidine-2-carboxamide] | < 2.5 | > 75 | –
Cc1ncsc1-c1ccc([C@H](C)NC(=O)[C@@H]2C[C@@H](O)CN2C(=O)[C@@H](c2cc(N3CCC4(CCN(CC5CCN(C[C@H]6C[C@H](Oc7cc(N8C9CCC8CN(c8cc(-c%10ccccc%10O)nnc8N)C9)ccn7)C6)CC5)CC4)CC3)no2)C(C)C)cc1 [compound 689, (2S,4R)-1-((2R)-2-(3-(9-((1-(((1r,3r)-3-((4-(3-(3-amino-6-(2-hydroxyphenyl)pyridazin-4-yl)-3,8-diazabicyclo[3.2.1]octan-8-yl)pyridin-2-yl)oxy)cyclobutyl)methyl)piperidin-4-yl)methyl)-3,9-diazaspiro[5.5]undecan-3-yl)isoxazol-5-yl)-3-methylbutanoyl)-4-hydroxy-N-((S)-1-(4-(4-methylthiazol-5-yl)phenyl)ethyl)pyrrolidine-2-carboxamide] | < 2.5 | – | Dmax [5]: > 75%
Cc1ncsc1-c1ccc([C@H](C)NC(=O)[C@@H]2C[C@@H](O)CN2C(=O)[C@H](c2cc(OCC#Cc3ncc(O[C@H]4C[C@H](Oc5cc(N6C7CCC6CN(c6cc(-c8ccccc8O)nnc6N)C7)ccn5)C4)cn3)no2)C(C)C)cc1 [compound 231, (2S,4R)-1-((2S)-2-(3-((3-(5-((1r,3S)-3-((4-(3-(3-amino-6-(2-hydroxyphenyl)pyridazin-4-yl)-3,8-diazabicyclo[3.2.1]octan-8-yl)pyridin-2-yl)oxy)cyclobutoxy)pyrimidin-2-yl)prop-2-yn-1-yl)oxy)isoxazol-5-yl)-3-methylbutanoyl)-4-hydroxy-N-((S)-1-(4-(4-methylthiazol-5-yl)phenyl)ethyl)pyrrolidine-2-carboxamide] | < 2.5 | – | Dmax (BRM degradation, SW1573 cells, tested at the top concentration of between 0.3 and 10 μM, read-out: Dmax (%) (% degraded)): > 75%
Cc1ncsc1-c1ccc([C@H](C)NC(=O)[C@@H]2C[C@@H](O)CN2C(=O)[C@@H](c2cc(OCCN3CC[C@H](O[C@H]4C[C@H](Oc5cc(N6C7CCC6CN(c6cc(-c8ccccc8O)nnc6N)C7)ccn5)C4)C[C@H]3C)no2)C(C)C)cc1 [compound 628, (2S,4R)-1-((2R)-2-(3-(2-((2R,4S)-4-((1r,3S)-3-((4-(3-(3-amino-6-(2-hydroxyphenyl)pyridazin-4-yl)-3,8-diazabicyclo[3.2.1]octan-8-yl)pyridin-2-yl)oxy)cyclobutoxy)-2-methylpiperidin-1-yl)ethoxy)isoxazol-5-yl)-3-methylbutanoyl)-4-hydroxy-N-((S)-1-(4-(4-methylthiazol-5-yl)phenyl)ethyl)pyrrolidine-2-carboxamide] | < 2.5 | – | Dmax [5]: > 75%
Cc1ncsc1-c1ccc([C@H](C)NC(=O)[C@@H]2C[C@@H](O)CN2C(=O)[C@@H](c2cc(OC/C=C/c3ccc(O[C@H]4C[C@H](Oc5cc(N6C7CCC6CN(c6cc(-c8ccccc8O)nnc6N)C7)ccn5)C4)cn3)no2)C(C)C)cc1 [compound 86, (2S,4R)-1-((2R)-2-(3-(((E)-3-(5-((1r,3R)-3-((4-(3-(3-amino-6-(2-hydroxyphenyl)pyridazin-4-yl)-3,8-diazabicyclo[3.2.1]octan-8-yl)pyridin-2-yl)oxy)cyclobutoxy)pyridin-2-yl)allyl)oxy)isoxazol-5-yl)-3-methylbutanoyl)-4-hydroxy-N-((S)-1-(4-(4-methylthiazol-5-yl)phenyl)ethyl)pyrrolidine-2-carboxamide] | < 2.5 | > 75 | –
